Patent US10028506B2, “Plant strengthener comprising a tocopherol and a boron compound” (COMPO EXPERT GMBH, priority 2013, dated 2018)

Tests used:
Format in all cases: in vivo
[1] = test system: sweet cherry (variety Hedelfinger) inflorescences, severed branches; assay: Frost protection activity on sweet cherry inflorescences in frost chamber; details: dilute aqueous preparation (0.25 kg/ha), −2° C. for 4 hours
Experimental: (§1) For the following studies, tocopherol-comprising formulations were diluted with water to give a tocopherol concentration of 0.25% by weight.
(§2) Boroethanolamine was diluted with water to give a concentration of 0.25% by weight.
(§3) Freshly severed branches with 20 to 50 inflorescences (inflorescence stage BBCH 60-69) were used for studying the protection of inflorescences. The twigs were sprayed to runoff point with the aqueous dilution of the respective formulation, using a hand-held sprayer.
(§4) The tests of the formulations in respect of their frost protectant activity were carried out under controlled conditions in frost chambers with fruit-tree inflorescences (apple (variety Elstar), severed branches, sweet cherry (variety Hedelfinger), severed branches).
(§5) The fruit trees were treated 24 hours before the frost event by spraying the inflorescences with the dilute formulation.
(§6) (b) Treatment with formulation FV1 (0.25 g/l tocopherol),
(§7) (c) Treatment with formulation F1 (0.25 g/l tocopherol)+0.25 g/l boroethanolamine).
(§8) The branches were severed from the plant shortly before the test and then exposed to a temperature of −2° C. for a defined period (4 hours). On the following day, the relative number of the inflorescences with frost damage was determined visually. Damage was considered to be browning of the floral tissue (pedicel and ovaries).

[2] = test system: apple trees cv. "Granny Smith" fruits; assay: Protection against sun-scorch, field experiments on apples; details: dilute aqueous preparation (0.25 kg/ha); apples field experiment
Experimental: For the field experiments, the formulations were diluted with tap water in an amount of 100 l per kg of formulation. The plants were sprayed with the aqueous dilution with the aid of a commercially available plant protection sprayer at an application rate of 0.25 kg tocopherol/ha. The study was carried out in an apple plantation in South Africa (Somerset-West region) in February. To this end, apple trees cv. “Granny Smith” were sprayed with an aqueous dilution of formulation F2 or formulation FV2 8 days before the harvest in two adjacent plots, in parallel experiments. The controls used were in each case untreated trees of the same plot. To determine the damage, in each case approximately 30 fruits were harvested from each tree of the treated trees and of the untreated trees and then observed. The proportion of damaged fruits of the treated trees and of the untreated trees of the respective experiment was determined, and the percentage reduction in damage was determined on this basis. Damage was considered to be reddish and brownish discolorations of the fruit skin.

[3] = test system: apple (variety Elstar) inflorescences, severed branches; assay: Frost protection activity on apple inflorescences in frost chamber; details: dilute aqueous preparation (0.25 kg/ha), −2° C. for 4 hours
Experimental: as §1, §2, §3, §4, §5, §6, §7, §8

[4] = test system: tangerine trees cv. "satsuma" fruits; assay: Protection against sun-scorch, field experiments on tangerines (satsumas); details: dilute aqueous preparation (0.25 kg/ha); tangerines field experiment
Experimental: For the field experiments, the formulations were diluted with tap water in an amount of 100 l per kg of formulation. The plants were sprayed with the aqueous dilution with the aid of a commercially available plant protection sprayer at an application rate of 0.25 kg tocopherol/ha. The study was carried out in a fruit plantation in South Africa (Western Cape region, Simondium) in February. To this end, tangerine trees cv. “satsuma” were sprayed with an aqueous dilution of formulation F2 or formulation FV2 6 days before the harvest in two adjacent plots, in parallel experiments. The controls used were in each case untreated trees of the same plot. To determine the damage, in each case approximately 30 fruits were harvested from each tree of the treated trees and of the untreated trees and then observed. The proportion of damaged fruits of the treated trees and of the untreated trees of the respective experiment was determined, and the percentage reduction in damage was determined on this basis. Damage was considered to be yellowish discolorations of the green fruit skin.

NCCOB(O)O [boroethanolamine]
no significant change over the control: change in frost damage over the control [1] | change in sun-scorch damage over the control [2] | change in frost damage over the control [3] | change in sun-scorch damage over the control [4]
